Measured values reported in ChEMBL document CHEMBL1123907 (J Med Chem, 1987).

Legend:
[1] = Binding affinity against imipramine receptor was determined in homogenized rat cortex tissue using [3H]-imipramine as radioligand
[2] = molecular target: Muscarinic acetylcholine receptor; experiment: Binding affinity against Muscarinic acetylcholine receptor was determined in homogenized rat cortex tissue using [3H]N-methylscopolamine as radioligand

Row | SMILES | Ki [1] | Ki [2]
1 | CN1CCN(CC(=O)N2c3ccccc3C(=O)Nc3cccnc32)CC1 [PIRENZEPINE] | > 100000 nM | 
2 | CN(C)CCCN1c2ccccc2NC(=O)c2ccccc21 | 4000 nM | 50 nM
3 | CN(C)CCCN1c2ccccc2C(=O)Nc2cccnc21 | 15000 nM | 200 nM
4 | CN(C)CCC(=O)N1c2ccccc2C(=O)Nc2cccnc21 | > 100000 nM | 45 nM
5 | CN(C)CCCN1c2ccccc2CCc2ccccc21 [IMIPRAMINE] | 12 nM | 65 nM
6 | CN(C)CCC(=O)N1c2ccccc2CCc2ccccc21 | 400 nM | 240 nM
7 | CN1CCN(CC(=O)N2c3ccccc3NC(=O)c3ccccc32)CC1 | > 100000 nM | 23 nM
8 | CN(C)CCC(=O)N1c2ccccc2NC(=O)c2ccccc21 | > 100000 nM | 6 nM
9 | CN1CCN(CC(=O)N2c3ccccc3CCc3ccccc32)CC1 | > 100000 nM | 200 nM
